Data as given in PubChem BioAssay (NCI).
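GI50 is the concentration that inhibits growth by half. TGI is the concentration that stops growth completely.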

Experiments:
Assay in all cases: inhibition of tumour cell growth, NCI panel, 384-well format
A498 renal = system: A498 renal
TK-10 renal = system: TK-10 renal
SNB-75 CNS = system: SNB-75 CNS
T-47D breast = system: T-47D breast
BT-549 breast = system: BT-549 breast
OVCAR-8 ovarian = system: OVCAR-8 ovarian
NCI-H23 lung = system: NCI-H23 lung
HCC-2998 colon = system: HCC-2998 colon
IGROV1 ovarian = system: IGROV1 ovarian
KM12 colon = system: KM12 colon
K-562 leukemia = system: K-562 leukemia
DU-145 prostate = system: DU-145 prostate
SK-MEL-28 melanoma = system: SK-MEL-28 melanoma
UACC-257 melanoma = system: UACC-257 melanoma
NCI-H226 lung = system: NCI-H226 lung
U251 glioblastoma = system: U251 glioblastoma
NCI-H460 NSCLC = system: NCI-H460 NSCLC
HOP-92 NSCLC = system: HOP-92 NSCLC
MALME-3M melanoma = system: MALME-3M melanoma
HCT-15 colon = system: HCT-15 colon
OVCAR-5 ovarian = system: OVCAR-5 ovarian
RXF 393 renal = system: RXF 393 renal
SW-620 colon = system: SW-620 colon
UO-31 renal = system: UO-31 renal
NCI-H522 lung = system: NCI-H522 lung
EKVX NSCLC = system: EKVX NSCLC
COLO 205 colon = system: COLO 205 colon
NCI-H322M lung = system: NCI-H322M lung
786-0 renal = system: 786-0 renal
SN12C renal = system: SN12C renal
MDA-MB-468 breast = system: MDA-MB-468 breast
MDA-MB-435 melanoma = system: MDA-MB-435 melanoma
OVCAR-4 ovarian = system: OVCAR-4 ovarian
OVCAR-3 ovarian = system: OVCAR-3 ovarian
M14 melanoma = system: M14 melanoma
HOP-62 NSCLC = system: HOP-62 NSCLC
LOX IMVI melanoma = system: LOX IMVI melanoma
SK-MEL-5 melanoma = system: SK-MEL-5 melanoma
NCI/ADR-RES ovarian = system: NCI/ADR-RES ovarian
MDA-MB-231 breast = system: MDA-MB-231 breast
RPMI-8226 leukemia = system: RPMI-8226 leukemia
SF-295 CNS = system: SF-295 CNS
MCF7 breast = system: MCF7 breast
SF-539 CNS = system: SF-539 CNS
UACC-62 melanoma = system: UACC-62 melanoma
CAKI-1 renal = system: CAKI-1 renal
PC-3 prostate = system: PC-3 prostate
HS 578T breast = system: HS 578T breast
SK-MEL-2 melanoma = system: SK-MEL-2 melanoma
ACHN renal = system: ACHN renal
SNB-19 CNS = system: SNB-19 CNS
A549 NSCLC = system: A549 NSCLC
SF-268 CNS = system: SF-268 CNS
HCT-116 colon = system: HCT-116 colon
HL-60(TB) leukemia = system: HL-60(TB) leukemia
SK-OV-3 ovarian = system: SK-OV-3 ovarian
HT29 colon = system: HT29 colon

With `CC[C@@]1(O)C(=O)OCc2c1cc1n(c2=O)Cc2cc3c(CN(C)C)c(O)ccc3nc2-1` as the compound, how does the GI50 (A498 renal) read?
The GI50 was 40.1 nM.

And the TGI (A498 renal)?
The TGI was 255 nM.

What about the GI50 (TK-10 renal) of the same compound?
Its GI50 is 296 nM.

And the TGI (TK-10 renal)?
Its TGI is 3.13 µM.

And the GI50 (SNB-75 CNS)?
Its GI50 is 25.2 nM.

And the TGI (SNB-75 CNS)?
Its TGI is 60 nM.

What about the GI50 (T-47D breast) of the same compound?
The GI50 was 21.8 nM.

And the TGI (T-47D breast)?
Its TGI is 790 nM.

What about the GI50 (BT-549 breast) of the same compound?
Its GI50 is under 15.6 nM.

What about the TGI (BT-549 breast) of the same compound?
The TGI was 71.5 nM.

What about the GI50 (OVCAR-8 ovarian) of the same compound?
Its GI50 is 17.1 nM.

And the TGI (OVCAR-8 ovarian)?
The TGI was 180 nM.

What about the GI50 (NCI-H23 lung) of the same compound?
The GI50 was 18.8 nM.

And the TGI (NCI-H23 lung)?
Its TGI is 56.5 nM.

And the GI50 (HCC-2998 colon)?
The GI50 was 118 nM.

What about the TGI (HCC-2998 colon) of the same compound?
Its TGI is 311 nM.

What about the GI50 (IGROV1 ovarian) of the same compound?
The GI50 was 66.4 nM.

What about the TGI (IGROV1 ovarian) of the same compound?
The TGI was 749 nM.

And the GI50 (KM12 colon)?
Its GI50 is 117 nM.

And the TGI (KM12 colon)?
The TGI was 673 nM.

And the GI50 (K-562 leukemia)?
Its GI50 is 15.9 nM.

And the TGI (K-562 leukemia)?
Its TGI is 253 nM.

And the TGI (DU-145 prostate)?
The TGI was 37.4 nM.

What about the GI50 (SK-MEL-28 melanoma) of the same compound?
The GI50 was 72.1 nM.

What about the TGI (SK-MEL-28 melanoma) of the same compound?
Its TGI is 1290 nM.

And the GI50 (UACC-257 melanoma)?
The GI50 was 154 nM.

What about the TGI (UACC-257 melanoma) of the same compound?
Its TGI is 1540 nM.

And the GI50 (NCI-H226 lung)?
Its GI50 is 19.9 nM.

What about the TGI (NCI-H226 lung) of the same compound?
The TGI was 122 nM.

What about the GI50 (U251 glioblastoma) of the same compound?
The GI50 was under 13 nM.

What about the TGI (U251 glioblastoma) of the same compound?
The TGI was 58.1 nM.

What about the GI50 (NCI-H460 NSCLC) of the same compound?
Its GI50 is 19.8 nM.

What about the TGI (NCI-H460 NSCLC) of the same compound?
The TGI was 100 nM.

What about the GI50 (HOP-92 NSCLC) of the same compound?
Its GI50 is 32.4 nM.

And the TGI (HOP-92 NSCLC)?
Its TGI is 266 nM.

What about the GI50 (MALME-3M melanoma) of the same compound?
Its GI50 is 130 nM.

What about the TGI (MALME-3M melanoma) of the same compound?
Its TGI is 996 nM.

And the GI50 (HCT-15 colon)?
The GI50 was 50.7 nM.

What about the TGI (HCT-15 colon) of the same compound?
The TGI was 1130 nM.

What about the GI50 (OVCAR-5 ovarian) of the same compound?
Its GI50 is 147 nM.

What about the TGI (OVCAR-5 ovarian) of the same compound?
The TGI was 482 nM.

What about the GI50 (RXF 393 renal) of the same compound?
The GI50 was 48.3 nM.

What about the TGI (RXF 393 renal) of the same compound?
Its TGI is 143 nM.

And the GI50 (SW-620 colon)?
Its GI50 is under 16.6 nM.

And the TGI (SW-620 colon)?
Its TGI is 637 nM.

What about the GI50 (UO-31 renal) of the same compound?
Its GI50 is 41.6 nM.

And the TGI (UO-31 renal)?
Its TGI is 168 nM.

What about the GI50 (NCI-H522 lung) of the same compound?
The GI50 was 19.8 nM.

And the TGI (NCI-H522 lung)?
The TGI was 236 nM.

What about the GI50 (EKVX NSCLC) of the same compound?
The GI50 was 366 nM.

What about the TGI (EKVX NSCLC) of the same compound?
The TGI was 1860 nM.

And the TGI (COLO 205 colon)?
The TGI was 800 nM.

What about the GI50 (NCI-H322M lung) of the same compound?
Its GI50 is 143 nM.

What about the TGI (NCI-H322M lung) of the same compound?
Its TGI is 451 nM.

What about the GI50 ([…]-0 renal) of the same compound?
Its GI50 is 18.2 nM.

What about the TGI (786-0 renal) of the same compound?
Its TGI is 63.1 nM.

And the GI50 (SN12C renal)?
Its GI50 is 22 nM.

And the TGI (SN12C renal)?
The TGI was 75.3 nM.

And the GI50 (MDA-MB-468 breast)?
The GI50 was 10.2 nM.

And the TGI (MDA-MB-468 breast)?
The TGI was under 16.5 nM.

And the GI50 (MDA-MB-435 melanoma)?
The GI50 was 181 nM.

What about the TGI (MDA-MB-435 melanoma) of the same compound?
Its TGI is 619 nM.

What about the GI50 (OVCAR-4 ovarian) of the same compound?
The GI50 was 469 nM.

What about the TGI (OVCAR-4 ovarian) of the same compound?
Its TGI is 1700 nM.

And the GI50 (OVCAR-3 ovarian)?
Its GI50 is 53.3 nM.

What about the TGI (OVCAR-3 ovarian) of the same compound?
The TGI was 282 nM.

And the GI50 (M14 melanoma)?
The GI50 was 20.6 nM.

And the TGI (M14 melanoma)?
Its TGI is 64.7 nM.

And the TGI (HOP-62 NSCLC)?
The TGI was 17.5 nM.

What about the GI50 (LOX IMVI melanoma) of the same compound?
Its GI50 is 11.4 nM.

And the TGI (LOX IMVI melanoma)?
Its TGI is 142 nM.

What about the GI50 (SK-MEL-5 melanoma) of the same compound?
The GI50 was 23.6 nM.

And the TGI (SK-MEL-5 melanoma)?
Its TGI is 69.1 nM.

And the GI50 (NCI/ADR-RES ovarian)?
The GI50 was 82 nM.

What about the TGI (NCI/ADR-RES ovarian) of the same compound?
Its TGI is 326 nM.

And the GI50 (MDA-MB-231 breast)?
Its GI50 is 182 nM.

What about the TGI (MDA-MB-231 breast) of the same compound?
Its TGI is 781 nM.

And the GI50 (RPMI-8226 leukemia)?
Its GI50 is 28.6 nM.

What about the TGI (RPMI-8226 leukemia) of the same compound?
Its TGI is 80.9 nM.

What about the GI50 (SF-295 CNS) of the same compound?
The GI50 was under 13.1 nM.

And the TGI (SF-295 CNS)?
The TGI was 26.5 nM.

And the GI50 (MCF7 breast)?
The GI50 was under 15.7 nM.

What about the TGI (MCF7 breast) of the same compound?
Its TGI is 3.48 µM.

And the GI50 (SF-539 CNS)?
Its GI50 is 16.7 nM.

And the TGI (SF-539 CNS)?
The TGI was 42.6 nM.

What about the GI50 (UACC-62 melanoma) of the same compound?
The GI50 was 16 nM.

What about the TGI (UACC-62 melanoma) of the same compound?
Its TGI is 63.2 nM.

And the GI50 (CAKI-1 renal)?
The GI50 was 22.7 nM.

And the TGI (CAKI-1 renal)?
Its TGI is 247 nM.

And the GI50 (PC-3 prostate)?
The GI50 was 385 nM.

What about the TGI (PC-3 prostate) of the same compound?
The TGI was over 36.6 µM.

What about the GI50 (HS 578T breast) of the same compound?
Its GI50 is under 39.9 nM.

What about the TGI (HS 578T breast) of the same compound?
The TGI was 715 nM.

And the GI50 (SK-MEL-2 melanoma)?
Its GI50 is 219 nM.

And the TGI (SK-MEL-2 melanoma)?
The TGI was 529 nM.

What about the GI50 (ACHN renal) of the same compound?
Its GI50 is 20.4 nM.

And the TGI (ACHN renal)?
The TGI was 47 nM.

And the GI50 (SNB-19 CNS)?
The GI50 was 24.5 nM.

What about the TGI (SNB-19 CNS) of the same compound?
The TGI was 228 nM.

And the GI50 (A549 NSCLC)?
The GI50 was 50.1 nM.

What about the TGI (A549 NSCLC) of the same compound?
Its TGI is 1220 nM.

And the TGI (SF-268 CNS)?
Its TGI is 26 nM.

What about the TGI (HCT-116 colon) of the same compound?
The TGI was 222 nM.

And the GI50 (HL-60(TB) leukemia)?
The GI50 was under 11.3 nM.

And the TGI (HL-60(TB) leukemia)?
Its TGI is 23.9 nM.

And the GI50 (SK-OV-3 ovarian)?
The GI50 was 31.6 nM.

What about the TGI (SK-OV-3 ovarian) of the same compound?
Its TGI is 129 nM.

And the GI50 (HT29 colon)?
The GI50 was 49.6 nM.

What about the TGI (HT29 colon) of the same compound?
The TGI was 200 nM.
